# Experimental data from patent US9550792B2, “Polycyclic substituted pyrazole kinase activity inhibitors and use thereof” (priority 2013, dated 2017).
# “And” between values parts separate entries of the source, which are not always exact repeats. Identical values can stand only once. Like-named read-outs stand apart in the source and are kept apart here.
# Tests used:
# [1] = Measurement of water solubility; format: physicochemical; conditions: thermodynamic from solid, distilled water, 25° C.
# Description: An excess quantity of sample was added into a 50 mL triangular flask, to which 10 mL distilled water was added, and then the flask was vibrated in a Constant Temperature Vibrator at 25° C. for 72 h. The solution was centrifuged at 10000 r/min for 15 min and then the supernatant was filtrated with […] microfiltration membrane to remove undissolved drug. 2 mL filtrate was metered with methanol to 10 ml. The content of drug was determined with 20 μL sample injection.
# [2] = Pharmacokinetics after single oral dose in rats; format: in vivo, Wistar rat
# Description: 300 μL blood collected from the rat was mixed with 30 μL methanol and 2 mL ethyl acetate. The samples were vortexed for 3 min and centrifuged at 4000 rpm for 15 min. The supernatant was introduced into another centrifugal tube. The lower layer was repeatedly extracted and then the supernatants were combined and dried with nitrogen gas. After redissolution with 150 μL methanol, they were filtered by 0.22 μm membrane and then subjected to analysis with a injection volume of 20 μL.
# An amount of compound was taken accurately to prepare CMC-Na aqueous solution containing 3 mg/mL of drug. 12 healthy male Wister rats were randomly assigned to two groups, each group including 6 rats. The first group was administrated orally compound 1. The second group was administrated orally compound 2. The doses were both 30 mg/kg (corresponding to 2 mL for each rat). The rats were fasting for 12 h before administration and free access to water. 0.6 mL blood samples were collected at 0.5, 1, 1.5, 2, 2.5, 3, 5, 8, 12 and 24 h after drug administration from the venous sinuses and added into EP tubes which were rinsed with heparin sodium previously. The samples were centrifuged at 4,000 r/min for 15 min and the upper plasma were obtained. 300 μL plasma was subjected to analysis and the chromatogram and peak area were recorded. The plasma concentrations of compounds 1 and 2 were calculated to give average concentration-time curve.
# DAS 2.0 program was used to analyze plasma concentration vs. time data after s single oral dose (Table 6, 7). Fitting and the AIC methods were used to determine the model. The analysis was based on the principle that the larger fitting and the smaller AIC, the better model. The oral administration was consistent with the two-compartment model. The statistical distance parameter is used to compare the 2 compounds for the pharmacokinetic parameters.
# [3] = male, Wistar, plasma, rat, oral 30 mg/kg
smiles,measurement,setting,value
"O=C(Nc1ccc(CN2CCOCC2)cc1)c1n[nH]cc1Nc1ncnc2sccc12 [Compound I-2, 4-(4-thieno[2,3-d]pyrimidinylamino)-N-(4-((4-morpholinyl)methyl)phenyl)-1H-3-pyrazolecarboxamide]",solubility at 72 h,[1],< 0.08 µg/mL
same,Cmax,[2]; [3],265 ± 52.9 ng/mL
same,Tmax,[2]; [3],14 ± 5.29 h
same,half-life,[2]; [3],14.7 ± 4.23 h
same,AUC(0-t),"[2]; male, Wistar, plasma, rat, oral 30 mg/kg, read-out: AUC 0-24",4350 ± 1300 ng·h/mL
same,MRT last,"[2]; male, Wistar, plasma, rat, oral 30 mg/kg, read-out: MRT 0-24",13.8 ± 1.29 h
same,concentration at 0.5 h,"[2]; male, Wistar, rat, plasma, po, 30 mg/kg, mean of rats, oral 30 mg/kg, time 0.5 h, read-out: Plasma concentration, mean",50.8 ng/mL
same,concentration at 1 h,"[2]; male, Wistar, rat, plasma, po, 30 mg/kg, mean of rats, oral 30 mg/kg, time 1 h, read-out: Plasma concentration, mean",85.3 ng/mL
same,concentration at 2 h,"[2]; male, Wistar, rat, plasma, po, 30 mg/kg, mean of rats, oral 30 mg/kg, time 2 h, read-out: Plasma concentration, mean",53.2 ng/mL
same,concentration at 2.5 h,"[2]; male, Wistar, rat, plasma, po, 30 mg/kg, mean of rats, oral 30 mg/kg, time 2.5 h, read-out: Plasma concentration, mean",57.6 ng/mL
same,concentration at 3 h,"[2]; male, Wistar, rat, plasma, po, 30 mg/kg, mean of rats, oral 30 mg/kg, time 3 h",64.5 ng/mL
same,concentration at 5 h,"[2]; male, Wistar, rat, plasma, po, 30 mg/kg, mean of rats, oral 30 mg/kg, time 5 h",122 ng/mL
same,concentration at 8 h,"[2]; male, Wistar, rat, plasma, po, 30 mg/kg, mean of rats, oral 30 mg/kg, time 8 h, read-out: Plasma concentration, mean",162 ng/mL
same,concentration at 12 h,"[2]; male, Wistar, rat, plasma, po, 30 mg/kg, mean of rats, oral 30 mg/kg, time 12 h, read-out: Plasma concentration, mean",264 ng/mL
same,concentration at 24 h,"[2]; male, Wistar, rat, plasma, po, 30 mg/kg, mean of rats, oral 30 mg/kg, time 24 h",157 ng/mL
same,concentration at 2.5 h,"[2]; male, Wistar, rat, plasma, po, 30 mg/kg, rat No. 1-6, oral 30 mg/kg, time 2.5 h, read-out: Plasma concentration, individual rats",72.9 ng/mL
same,concentration at 12 h,"[2]; male, Wistar, rat, plasma, po, 30 mg/kg, rat No. 1-6, oral 30 mg/kg, time 12 h, read-out: Plasma concentration, individual rats",253 ng/mL
same,"Plasma concentration, individual rats","[2]; rat No. 1-6, oral 30 mg/kg, time 0.5 h, 30 mg/kg",29.26 ng*ml/1 and 123.49 ng*ml/1 and 25.98 ng*ml/1 and 24.36 ng*ml/1
same,"Plasma concentration, individual rats","[2]; rat No. 1-6, oral 30 mg/kg, time 1 h, 30 mg/kg",208.71 ng*ml/1 and 28.68 ng*ml/1 and 18.66 ng*ml/1
same,"Plasma concentration, individual rats","[2]; rat No. 1-6, oral 30 mg/kg, time 2 h, 30 mg/kg",53.04 ng*ml/1 and 88.44 ng*ml/1 and 37.16 ng*ml/1 and 47.57 ng*ml/1 and 47.03 ng*ml/1 and 46.08 ng*ml/1
same,"Plasma concentration, individual rats","[2]; rat No. 1-6, oral 30 mg/kg, time 2.5 h, 30 mg/kg",74.79 ng*ml/1 and 57.6 ng*ml/1 and 39.48 ng*ml/1 and 49.89 ng*ml/1 and 51.04 ng*ml/1
same,"Plasma concentration, individual rats","[2]; rat No. 1-6, oral 30 mg/kg, time 3 h, 30 mg/kg",81.11 ng*ml/1 and 87.89 ng*ml/1 and 57.21 ng*ml/1 and 41.79 ng*ml/1 and 65.08 ng*ml/1 and 53.93 ng*ml/1
same,"Plasma concentration, individual rats","[2]; rat No. 1-6, oral 30 mg/kg, time 5 h, 30 mg/kg",124.06 ng*ml/1 and 272.93 ng*ml/1 and 86.12 ng*ml/1 and 78.03 ng*ml/1 and 94.32 ng*ml/1 and 76.64 ng*ml/1
same,"Plasma concentration, individual rats","[2]; rat No. 1-6, oral 30 mg/kg, time 8 h, 30 mg/kg",196.61 ng*ml/1 and 263.95 ng*ml/1 and 119.66 ng*ml/1 and 82.66 ng*ml/1 and 121.59 ng*ml/1 and 186.27 ng*ml/1
same,"Plasma concentration, individual rats","[2]; rat No. 1-6, oral 30 mg/kg, time 12 h, 30 mg/kg",345.56 ng*ml/1 and 229.22 ng*ml/1 and 256.32 ng*ml/1 and 213.94 ng*ml/1 and 286.97 ng*ml/1
same,"Plasma concentration, individual rats","[2]; rat No. 1-6, oral 30 mg/kg, time 24 h, 30 mg/kg",198.92 ng*ml/1 and 97.83 ng*ml/1 and 209.56 ng*ml/1 and 221.75 ng*ml/1 and 74.79 ng*ml/1 and 138.91 ng*ml/1
same,pharmacokinetic parameters (in words),"[2]; rat, oral 30 mg/kg",acceptable
